Measurements from patent US11976083B2, “Inhibitors of peptidylarginine deiminases” (Gilead Sciences, Inc., priority 2020, dated 2024).

Each compound was assayed against T1, human PAD4 (Homo sapiens, UniProt Q9UM07) (assay: In vitro PAD4 BAEE biochemical assay). Conditions: BAEE substrate 3 mM, 5 nM PAD4, 2 mM calcium chloride; geometric mean of multiple experiments.
T1 construct: human PAD4 (NM_012387), A2-P663, was PCR amplified; His-SUMO (N, cleaved yes); made in house; host or cells: E. coli BL21(DE3)
Method in brief: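 Ammonia produced by BAEE deimination (3 mM substrate, 2 h, 25 °C) was read as fluorescent isoindole after o-phthalaldehyde/DTT derivatization, ex 405 nm/em 535 nm. Human PAD4 at 5 nM final, 2 mM calcium, pH 7.6 MOPS; compound preincubated 30 min. IC50s, normalized to BB-Cl-Amidine and DMSO controls, were geometric-mean averaged.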

T1 sequence (Q9UM07 2-663): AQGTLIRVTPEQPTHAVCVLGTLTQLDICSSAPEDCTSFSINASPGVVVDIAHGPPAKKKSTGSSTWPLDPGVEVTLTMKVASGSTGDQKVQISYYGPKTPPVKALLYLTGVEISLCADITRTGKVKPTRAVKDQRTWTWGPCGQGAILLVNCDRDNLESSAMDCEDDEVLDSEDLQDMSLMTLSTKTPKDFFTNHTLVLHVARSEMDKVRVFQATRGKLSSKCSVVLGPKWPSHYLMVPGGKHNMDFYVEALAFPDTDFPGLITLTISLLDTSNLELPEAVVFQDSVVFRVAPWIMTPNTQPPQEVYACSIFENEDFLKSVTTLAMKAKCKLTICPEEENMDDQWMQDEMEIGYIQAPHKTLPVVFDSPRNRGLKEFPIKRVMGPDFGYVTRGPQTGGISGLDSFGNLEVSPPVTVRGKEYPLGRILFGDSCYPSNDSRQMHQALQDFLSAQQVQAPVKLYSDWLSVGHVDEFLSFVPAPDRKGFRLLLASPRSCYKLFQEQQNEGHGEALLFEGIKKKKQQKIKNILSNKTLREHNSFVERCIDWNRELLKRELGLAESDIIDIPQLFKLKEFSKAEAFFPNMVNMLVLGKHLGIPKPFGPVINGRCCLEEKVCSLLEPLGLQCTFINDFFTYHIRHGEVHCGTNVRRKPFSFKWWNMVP

Row | Compound | IC50
1 | COc1cc(C(=O)N2CC[C@@H](OC)[C@@H](N)C2)cc2nc(-c3cc4ccc5nc4n3CCCCC[C@H]3C[C@]3(C(F)(F)F)C(=O)N[C@@H]5C)n(C)c12 [Example 636, (2~{R},5~{R},7~{S})-14-[5-[(3~{S},4~{R})-3-amino-4-methoxy-piperidine-1-carbonyl]-7-methoxy-1-methyl-benzimidazol-2-yl]-2-methyl-5-(trifluoromethyl)-3,13,19-triazatetracyclo [11.5.2.0^{5,7}.0^ {16,20}]icosa-1(19), 14,16(20),17-tetraen-4-one] | 52 nM
2 | COc1cc(C(=O)N2CCC[C@@H](N)C2)cc2nc(-c3cc4ccc5nc4n3CCCCCCCC(=O)N(C)C5)n(C)c12 [Example 234, 17-[5-[(3˜{R})-3-aminopiperidine-1-carbonyl]-7-methoxy-1-methyl-benzimidazol-2-yl]-10-methyl-1,10,19-triazatricyclo[10.5.2.0^{15,18}]nonadeca-12(19),13,15(18),16-tetraen-9-one] | 622 nM
3 | C[C@H]1NC(=O)[C@@H]2C[C@H]2CCCCCn2c(-c3nc4cc(C(=O)N[C@H]5CNCC[C@@H]5F)c(F)cc4n3CC3(F)CC3)cc3ccc1nc32 [Example 405, 6-fluoro-1-[(1-fluorocyclopropyl)methyl]-~{N}-[(3~{S},4~{S})-4-fluoro-3-piperidyl]-2-[(2~{R},5~{R},7~{R})-2-methyl-4-oxo-3,13,19-triazatetracyclo[11.5.2.0^{5,7}.0^{16,20}]icosa-1(19),14,16(20),17-tetraen-14-yl]benzimidazole-5-carboxamide] | 27 nM
4 | COc1cc(C(=O)N2CCC[C@@H](N)C2)cc2nc(-c3cc4ccc5nc4n3CCCCCCC(=O)N[C@@H]5C)c(C)n12 [Example 300, (10~{R})-16-[7-[(3~{R})-3-aminopiperidine-1-carbonyl]-5-methoxy-3-methyl-imidazo[1,2-a]pyridin-2-yl]-10-methyl-1,9,18-triazatricyclo[9.5.2.0^{14,17}]octadeca-11(18),12,14(17),15-tetraen-8-one] | 50 nM
5 | COc1cc(C(=O)N[C@H]2CNCC[C@@H]2F)cc2nc(-c3cc4ccc5nc4n3CCCCCCC3(CC3)C(=O)N[C@@H]5C)n(C)c12 [Example 74, ~{N}-[(3~{S},4~{S})-4-fluoro-3-piperidyl]-7-methoxy-1-methyl-2-[(11~{R})-11-methyl-9-oxo-spiro[1,10,19-triazatricyclo[10.5.2.0^{15,18}]nonadeca-12(19),13,15(18),16-tetraene-8,1′-cyclopropane]-17-yl]benzimidazole-5-carboxamide] | 221 nM
6 | C[C@H]1NC(=O)c2ccccc2CCCCCn2c(-c3nc4cc(C(=O)N[C@H]5CNCC[C@@H]5F)c(F)cc4n3C)cc3ccc1nc32 [Example 593, 6-fluoro-~{N}-[(3~{S},4~ {S})-4-fluoro-3-piperidyl]-1-methyl-2-[(2~{R})-2-methyl-4-oxo-3,16,22-triazatetracyclo[14.5.2.0^ {5,10}.0^{19,23}]tricosa-1(21),5(10),6,8,17, 19,22-heptaen-17-yl] benzimidazole-5-carboxamide] | 44 nM
7 | C[C@H]1NC(=O)[C@@H]2C[C@H]2CCCCCn2c(-c3nc4cc(C(=O)N5[C@H]6CC[C@@H]5[C@H](N)C6)c(F)cc4n3C3CC3)cc3ccc1nc32 [Example 557, (2~{R},5~{R},7~{R})-14-[5-[(1~{R},2~{R},4~ {S})-2-amino-7-azabicyclo [2.2.1]heptane-7-carbonyl]-1-cyclopropyl-6-fluoro-benzimidazol-2-yl]-2-methyl-3,13,19-triazatetracyclo[11.5.2.0^ {5,7}.0^{16,20}] icosa-1(19),14,16(20), 17-tetraen-4-one] | 31 nM
8 | COc1cc(C(=O)N2CC[C@@H](OC)[C@@H](N)C2)cc2nc(-c3cc4ccc5nc4n3CCCCCc3cc4ccccc4nc3C(=O)N(C)[C@@H]5C)n(C)c12 [Example 735, (2~{R})-21-[5-[(3~{S},4~ {R})-3-amino-4-methoxy-piperidine-1-carbonyl]-7-methoxy-1-methyl-benzimidazol-2-yl]-2,3-dimethyl-3,6,20,26-tetrazapentacyclo[18.5.2.0^ {5,14).0^{7,12}.0^ {23,27}]heptacosa-1(26),5(14),6,8,10,12,21,23(27), 24-nonaen-4-one] | 143 nM
9 | COc1cc(C(=O)N2CC[C@@H](OC)[C@@H](N)C2)cc2nc(-c3cc4ccc5nc4n3CCC/C=C/c3ccc(Cl)nc3C(=O)N[C@@H]5C)n(C)c12 [Example 781, (2~{R},11~{E})-17-[5-[(3~ {S},4~{R})-3-amino-4-methoxy-piperidine-1-carbonyl]-7-methoxy-1-methyl-benzimidazol-2-yl]-7-chloro-2-methyl-3,6,16,22-tetrazatetracyclo[14.5.2.0^ {5,10}.0^{19,23}]tricosa-1(21),5(10),6,8,11,17,19,22-octaen-4-one] | 73 nM
10 | COc1cc(C(=O)N2[C@H]3CC[C@@H]2[C@H](N)C3)cc2nc(-c3cc4ccc5nc4n3CCCCCOCC(C)(C)C(=O)N[C@@H]5C)n(C)c12 [Example 22, (12~{R})-18-[5-[(1~{R},2~{R},4~{S})-2-amino-7-azabicyclo[2.2.1]heptane-7-carbonyl]-7-methoxy-1-methyl-benzimidazol-2-yl]-9,9,12-trimethyl-7-oxa-1,11,20-triazatricyclo[11.5.2.0^{16,19}]icosa-13(20),14,16(19),17-tetraen-10-one] | 62 nM

Further compounds by falling IC50, results first:

Row | IC50 | Compound
11 | 640 nM | COc1cc(C(=O)N2CC[C@@H](OC)[C@@H](N)C2)cc2nc(-c3cc4ccc5nc4n3CCCCCCC[C@@H](C(F)(F)F)N[C@@H]5C)n(C)c12 [Example 699, [(3~{S},4~{R})-3-amino-4-methoxy-1-piperidyl]-[7-methoxy-1-methyl-2-[(9~{S},11~ {R})-11-methyl-9-(trifluoromethyl)-1,10,19-triazatricyclo[10.5.2.0^ {15,18}]nonadeca-12(19),13,15(18),16-tetraen-17-yl]benzimidazol-5-yl] methanone]
12 | 52 nM | COc1cc(C(=O)N2C[C@H](N)[C@@H]3CC[C@H]2C3)cc2nc(-c3cc4ccc5nc4n3CCCCCOC(C)(C)C(=O)N[C@@H]5C)n(C)c12 [Example 909, (11~{R})-17-[5-[(1~{S},4~{R), 5~{R})-4-amino-2-azabicyclo [3.2.1]octane-2-carbonyl]-7-methoxy-1-methyl-benzimidazol-2-yl]-8,8,11-trimethyl-7-oxa-1,10,19-triazatricyclo[10.5.2.0^{15,18}] nonadeca-12(19), 13,15(18),16-tetraen-9-one]
13 | 40 nM | COc1cc(C(=O)N2C[C@H](N)[C@@H]3CC[C@H]2C3)cc2nc(-c3cc4ccc5nc4n3CCCCCc3ccc(F)c(F)c3C(=O)N[C@@H]5C)n(C)c12 [Example 897, (2~{R})-17-[5-[(1~{S),4~{R}, 5~{R})-4-amino-2-azabicyclo [3.2.1]octane-2-carbonyl]-7-methoxy-1-methyl-benzimidazol-2-yl]-6,7-difluoro-2-methyl-3,16,22-triazatetracyclo [14.5.2.0^{5,10}.0^{19,23}] tricosa-1(22),5(10),6,8,17, 19(23),20-heptaen-4-one]
14 | 23 nM | COc1cc(C(=O)N2[C@H]3CC[C@@H]2[C@H](N)C3)cc2nc(-c3cc4ccc5nc4n3CCCCCc3ccccc3C(=O)N[C@@H]5C)n(C)c12 [Example 39, (2~{R})-17-[5-[(1~{R},2~{R),4~{S})-2-amino-7-azabicyclo[2.2.1]heptane-7-carbonyl]-7-methoxy-1-methyl-benzimidazol-2-yl]-2-methyl-3,16,22-triazatetracyclo[14.5.2.0^{5,10}.0^{19,23}] tricosa-1(22),5,7,9,17,19(23),20-heptaen-4-one]
